{"source": "patent US20260070945A1", "about": "“MACROCYCLIC IMMUNOMODULATORS” (Bristol-Myers Squibb Company, priority 2022, published 2026)", "note": "*1 amine or outer side, *2 acyl side, *3 side chain or, on linkers, in order; H or OH if unused. Where a SMILES comes first, the peptide text is derived from it. Bridges are numbered along the chain shown (N, C = ends). [ ]: non-standard residue; d: D form. The star is where a group is joined. ξ: configuration not given here. Phe(4-COOH) = N[C@@H](Cc1ccc(C(=O)O)cc1)C(=O)O; Bip = N[C@@H](Cc1ccc(-c2ccccc2)cc1)C(=O)O; Phe(3-Me) = Cc1cccc(C[C@H](N)C(=O)O)c1; NMeAEEA = CN(CCOCCOCC(=O)[*:2])[*:1]; Val(3-OH) = CC(C)(O)[C@H](N)C(=O)O; 4Pal = N[C@@H](Cc1ccncc1)C(=O)O; Cha = N[C@@H](CC1CCCCC1)C(=O)O; Cit = NC(=O)NCCC[C@H](N)C(=O)O; Thr(3ξ) = CC(O)[C@H](N)C(=O)O; Carboxymethyl = O=C(O)C*; NMeA = CN[C@@H](C)C(=O)O; Orn = NCCC[C@H](N)C(=O)O; Aun = NCCCCCCCCCCC(=O)O; Dab = NCC[C@H](N)C(=O)O; Dap = NC[C@H](N)C(=O)O; AEEA = NCCOCCOCC(=O)O"}
{"target": "T1, PD-1/PD-L1 interaction (PE-labeled human PD-L1-Ig binding to Jurkat cell line over-expressing human PD-1) (Homo sapiens, UniProt Q15116)", "T1 construct": "expressed in transfected cells; host or cells: Jurkat", "T1 sequence (Q15116 25-288)": "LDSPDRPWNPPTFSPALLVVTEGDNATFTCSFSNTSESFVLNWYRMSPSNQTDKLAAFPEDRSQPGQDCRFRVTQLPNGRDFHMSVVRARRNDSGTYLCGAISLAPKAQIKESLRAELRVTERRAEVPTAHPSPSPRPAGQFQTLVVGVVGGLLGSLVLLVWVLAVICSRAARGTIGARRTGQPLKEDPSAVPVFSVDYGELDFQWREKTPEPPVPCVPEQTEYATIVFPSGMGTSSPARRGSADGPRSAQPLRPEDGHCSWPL", "test": "Jurkat-PD-1 Cell Binding High-Content Screening Assay (CBA)", "details": "Jurkat-hPD-1 cells, PE-labeled PD-L1-Ig 20 nM final; read-out: Jurkat HPD1 PDL1 IC50", "how_it_was_run": "(§1)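 Jurkat cells overexpressing human PD-1 (8×10^3/well, DMEM + 10% FCS) preincubated with compound 2 h at 37 °C, then PE-labelled human PD-L1-Ig (20 nM final) for 1 h. Cells fixed in paraformaldehyde with Hoechst 33342; bound PD-L1 quantified by high-content imaging.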", "units": {"IC50": "nM"}}
{"smiles": "CC[C@H](C)[C@@H]1NC(=O)[C@H](Cc2ccc(-c3ccccc3)cc2)NC(=O)[C@H](CC(C)C)NC(=O)[C@H](Cc2c[nH]c3ccccc23)NC(=O)[C@H](CC(=O)O)NC(=O)[C@H](Cc2ccc(C(=O)O)cc2)NC(=O)[C@H](Cc2ccc(OCC(=O)O)cc2)NC(=O)CSC[C@@H](C(=O)N[C@@H](CCCCN)C(=O)NCCOCCOCC(=O)NCCCCCCCCCCC(=O)O)NC(=O)[C@H](CO)NC(=O)[C@H](C(C)C)NC(=O)[C@H](CC2CCCCC2)NC(=O)[C@H](CCN)NC(=O)[C@@H](CC(C)C)NC(=O)[C@H](C)N(C)C1=O", "note": "[Example 1079] ({CH2CO}-Y(Carboxymethyl)[Phe(4-COOH)]DWL[Bip]I[NMeA][dL][Dab][Cha]VSCK[AEEA][Aun]-OH; thioether N-14)", "IC50": 10.8}
{"smiles": "Cc1cccc(C[C@@H]2NC(=O)[C@H](CC(=O)O)NC(=O)[C@H](Cc3ccc(OCC(=O)O)cc3)NC(=O)[C@H](CCCNC(N)=O)NC(=O)CSC[C@@H](C(=O)N[C@@H](CCN)C(=O)NCCCCCCCCCCC(=O)O)NC(=O)[C@H](CO)NC(=O)[C@H](C(C)C)NC(=O)[C@H](CC3CCCCC3)NC(=O)[C@H](CCN)NC(=O)[C@@H](CC(C)C)NC(=O)[C@H](C)N(C)C(=O)[C@H](Cc3ccc(O)cc3)NC(=O)[C@H](Cc3ccc(-c4ccccc4)cc3)NC(=O)[C@H](Cc3ccc(OCC(=O)O)cc3)NC2=O)c1", "note": "[Example 1275] ({CH2CO}-[Cit]Y(Carboxymethyl)D[Phe(3-Me)]Y(Carboxymethyl)[Bip]Y[NMeA][dL][Dab][Cha]VSC[Dab][Aun]-OH; thioether N-14)", "IC50": 223}
{"smiles": "CC(=O)NCCCC[C@@H]1NC(=O)[C@H](Cc2ccc(-c3ccccc3)cc2)NC(=O)[C@H](C(C)C)NC(=O)[C@H](Cc2cccc(C)c2)NC(=O)[C@H](CC(=O)O)NC(=O)[C@H](Cc2ccc(OCC(=O)O)cc2)NC(=O)[C@H](C(C)O)NC(=O)CSC[C@@H](C(=O)N(C)CCOCCOCC(=O)NCCCCCCCCCCC(=O)O)NC(=O)[C@H](C(C)C)NC(=O)[C@H](C(C)C)NC(=O)[C@H](CC2CCCCC2)NC(=O)[C@H](CCN)NC(=O)[C@@H](CC(C)C)NC(=O)[C@H](C)N(C)C1=O", "note": "(stereo partly drawn) [Example 2358] ({CH2CO}-[Thr(3ξ)]Y(Carboxymethyl)D[Phe(3-Me)]V[Bip]K(Ac)[NMeA][dL][Dab][Cha]VVC[NMeAEEA][Aun]-OH; thioether N-14)", "IC50": 16.6}
{"smiles": "Cc1cccc(C[C@@H]2NC(=O)[C@H](CC(=O)O)NC(=O)[C@H](Cc3ccc(OCC(=O)O)cc3)NC(=O)[C@H](CN)NC(=O)CSC[C@@H](C(=O)N[C@@H](CCN)C(=O)NCCCCCCCCCCC(=O)O)NC(=O)[C@H](CO)NC(=O)[C@H](C(C)C)NC(=O)[C@H](CC3CCCCC3)NC(=O)[C@H](CCN)NC(=O)[C@@H](CC(C)C)NC(=O)[C@H](C)N(C)C(=O)[C@H](Cc3ccc(O)cc3)NC(=O)[C@H](Cc3ccc(-c4ccccc4)cc3)NC(=O)[C@H](Cc3ccc(OCC(=O)O)cc3)NC2=O)c1", "note": "[Example 1259] ({CH2CO}-[Dap]Y(Carboxymethyl)D[Phe(3-Me)]Y(Carboxymethyl)[Bip]Y[NMeA][dL][Dab][Cha]VSC[Dab][Aun]-OH; thioether N-14)", "IC50": 14.9}
{"smiles": "Cc1cccc(C[C@@H]2NC(=O)[C@H](CC(=O)O)NC(=O)[C@H](Cc3ccc(OCC(=O)O)cc3)NC(=O)[C@H](CN)NC(=O)CSC[C@@H](C(=O)NCC(=O)N[C@@H](CN)C(=O)NCC(=O)NCCCCCCCCCCC(=O)O)NC(=O)[C@H](CO)NC(=O)[C@H](C(C)C)NC(=O)[C@H](CC(C)C)NC(=O)[C@H](CC(N)=O)NC(=O)[C@@H](CC(C)C)NC(=O)[C@H](C)N(C)C(=O)[C@H](C(C)C)NC(=O)[C@H](Cc3ccc(-c4ccccc4)cc3)NC(=O)[C@H](CC(C)C)NC2=O)c1", "note": "[Example 1052] ({CH2CO}-[Dap]Y(Carboxymethyl)D[Phe(3-Me)]L[Bip]V[NMeA][dL]NLVSCG[Dap]G[Aun]-OH; thioether N-14)", "IC50": 18.4}
{"smiles": "CC(C)C[C@@H]1NC(=O)[C@H](Cc2c[nH]c3ccccc23)NC(=O)[C@H](CC(=O)O)NC(=O)[C@H](Cc2ccc(O)cc2)NC(=O)[C@H](Cc2ccncc2)NC(=O)CSC[C@@H](C(=O)N[C@@H](CCCN)C(=O)NCCOCCOCC(=O)NCCCCCCCCCCC(=O)O)NC(=O)[C@H](CO)NC(=O)[C@H](C(C)C)NC(=O)[C@H](CC2CCCCC2)NC(=O)[C@H](CCN)NC(=O)[C@@H](CC(C)C)NC(=O)[C@H](C)N(C)C(=O)[C@H](C(C)C)NC(=O)[C@H](Cc2ccc(-c3ccccc3)cc2)NC1=O", "note": "[Example 2147] ({CH2CO}-[4Pal]YDWL[Bip]V[NMeA][dL][Dab][Cha]VSC[Orn][AEEA][Aun]-OH; thioether N-14)", "IC50": 10.4}
{"smiles": "Cc1cccc(C[C@@H]2NC(=O)[C@H](CC(=O)O)NC(=O)[C@H](Cc3ccc(C(=O)O)cc3)NC(=O)[C@H](C(C)O)NC(=O)CSC[C@@H](C(=O)N[C@@H](CCN)C(=O)NCCOCCOCC(=O)NCCCCCCCCCCC(=O)O)NC(=O)[C@H](Cc3ccc(C(=O)O)cc3)NC(=O)[C@H](C(C)C)NC(=O)[C@H](CC3CCCCC3)NC(=O)[C@H](CCN)NC(=O)[C@@H](CC(C)C)NC(=O)[C@H](C)N(C)C(=O)[C@H](Cc3ccc(OCC(=O)O)cc3)NC(=O)[C@H](Cc3ccc(-c4ccccc4)cc3)NC(=O)[C@H](Cc3ccc(C(=O)O)cc3)NC2=O)c1", "note": "(stereo partly drawn) [Example 2477] ({CH2CO}-[Thr(3ξ)][Phe(4-COOH)]D[Phe(3-Me)][Phe(4-COOH)][Bip]Y(Carboxymethyl)[NMeA][dL][Dab][Cha]V[Phe(4-COOH)]C[Dab][AEEA][Aun]-OH; thioether N-14)", "IC50": 24.5}
{"target": "T1, PD-1/PD-L1 interaction (PE-labeled human PD-L1-Ig binding to Jurkat cell line over-expressing human PD-1)", "test": "Jurkat-PD-1 Cell Binding High-Content Screening Assay (CBA)", "details": "PE-labeled PD-L1-Ig 20 nM final, Jurkat-hPD-1 cells; read-out: Jurkat HPD1 PDL1 IC50", "how_it_was_run": "as §1", "units": {"IC50": "nM"}}
{"smiles": "Cc1cccc(C[C@@H]2NC(=O)[C@H](CC(=O)O)NC(=O)[C@H](Cc3ccc(C(=O)O)cc3)NC(=O)[C@H](Cc3ccncc3)NC(=O)CSC[C@@H](C(=O)N[C@@H](CCCN)C(=O)NCCOCCOCC(=O)NCCCCCCCCCCC(=O)O)NC(=O)[C@H](CCC(=O)O)NC(=O)[C@H](C(C)(C)O)NC(=O)[C@H](CC3CCCCC3)NC(=O)[C@H](Cc3cnc[nH]3)NC(=O)[C@@H](CC(C)C)NC(=O)[C@H](C)N(C)C(=O)[C@H](Cc3ccc(C(=O)O)cc3)NC(=O)[C@H](Cc3ccc(-c4ccccc4)cc3)NC(=O)[C@H](Cc3ccc(C(=O)O)cc3)NC2=O)c1", "note": "[Example 2498] ({CH2CO}-[4Pal][Phe(4-COOH)]D[Phe(3-Me)][Phe(4-COOH)][Bip][Phe(4-COOH)][NMeA][dL]H[Cha][Val(3-OH)]EC[Orn][AEEA][Aun]-OH; thioether N-14)", "IC50": 36.2}
{"smiles": "Cc1cccc(C[C@@H]2NC(=O)[C@H](CC(=O)O)NC(=O)[C@H](Cc3ccc(C(=O)O)cc3)NC(=O)[C@H](CCN)NC(=O)CSC[C@@H](C(=O)N[C@@H](CCN)C(=O)NCCOCCOCC(=O)NCCCCCCCCCCC(=O)O)NC(=O)[C@H](CCC(=O)O)NC(=O)[C@H](C(C)O)NC(=O)[C@H](CC3CCCCC3)NC(=O)[C@H](CCN)NC(=O)[C@@H](CC(C)C)NC(=O)[C@H](C)N(C)C(=O)[C@H](Cc3ccc(C(=O)O)cc3)NC(=O)[C@H](Cc3ccc(-c4ccccc4)cc3)NC(=O)[C@H](Cc3ccc(C(=O)O)cc3)NC2=O)c1", "note": "(stereo partly drawn) [Example 2552] ({CH2CO}-[Dab][Phe(4-COOH)]D[Phe(3-Me)][Phe(4-COOH)][Bip][Phe(4-COOH)][NMeA][dL][Dab][Cha][Thr(3ξ)]EC[Dab][AEEA][Aun]-OH; thioether N-14)", "IC50": 18.7}
